# In patent publication US10899764B2, “Imidazo isoindole derivative, preparation method therefor and medical use thereof” (Jiangsu Hengrui Medicine Co., Ltd., priority 2015, dated 2021):
# Structures can show the parent of a compound that is named as a salt. Where two headings read alike, the source gives them in different places.
# What was measured:
# IDO in HeLa cells = IDO in HeLa cells (Homo sapiens (Human), UniProt P14902); test: Inhibition activity on IDO in HeLa cells (INF-γ induced); type: cell-based; settings: HeLa cells, INF-γ and tryptophan, 48 hours; read-out: IC50 for inhibiting the activity of IDO in HeLa cells
# Experimental: Assay for Determining the Inhibition Activity of the Present Compounds on IDO in HeLa Cells
# IDO activity in HeLa cells was tested in vitro by the following method.
# This method is used to determine the inhibition effect of the compounds of the present invention on the activity of IDO in HeLa cells. (Note: indoleamine 2,3-dioxygenase (IDO) is expressed in the HeLa cell line and induced by interferon gamma (INF-γ)).
# The supernatant was removed, serum-free DMEM high glucose medium was added at 90 μL/well, then the compounds contained in the culture medium with INF-γ and tryptophan were added at 10 μL/well (the final concentrations: 10000, 1000, 100, 10, 1, 0.1 nM). […] Then, 80 μL of the supernate was transferred from the 96-well cell culture plate to a 96 well round-bottomed plate, then 30% (W/V) trichloroacetic acid was added at 16 μL/well, then the mixture was incubated for 25 minutes at 65° C. in an incubator. The reaction plate was centrifuged in a centrifuge for 5 minutes at 4700 RPM. Then, 50 μL of the supernatant was transferred from the reaction plate to a 96-well flat-bottomed transparent plate by a multi-channel pipette. Then, 2% (W/V) 4-(dimethylamino)benzaldehyde/glacial acetic acid solution was added at 50 μL/well, then the mixture was mixed uniformly for 1 minute on a shaker. After incubation for 2 minutes at room temperature, the absorbance at 480 nm was read on a Synergy HT Reader.
# The inhibition activity of the compounds of the present invention on IDO in HeLa cells was tested by the assay described above.
# human IDO1 = human IDO1 (Homo sapiens (Human), UniProt P14902); test: Inhibition activity on human IDO1 (enzyme assay, absorbance at 480 nm); type: biochemical; settings: read-out: IC50 for inhibiting the activity of human IDO1
# Experimental: Assay for Determining the Inhibition Activity of the Present Compounds on Human IDO1
# Human IDO1 activity was tested in vitro by the following method.
# This method is used to determine the inhibition effect of the compounds of the present invention on the activity of human IDO1.
# The human IDO1 gene was transferred to Pet30a plasmid by gene cloning, and then transferred to competent Escherichia coli Rosseta. The IDO1 gene was scaled-up by culturing in liquid LB (Luria-Bertani) medium [which was prepared per liter according to “Molecular Cloning A Laboratory Manual” (J. Sambrook, D. W. Russell)]). The bacteria were collected and lysed by ultrasonic waves. The purified IDO1 was obtained by eluting from a column.
# For testing, 24 μL of enzyme (IDO1) was diluted 100 times with 50 mM KPB to 2400 μL. The concentration of the enzyme solution was 2.6 ng/μL. A 96 well reaction plate (AXYGEN, PCR-96-FLT-C) (hereinafter referred to as the “reaction plate”) was added with the enzyme solution at 24 μL/well. The blank well was added with 24 μL of KPB [Preparation of KPB buffer (50 mM): 6.805 g of KH2PO4 was weighed using an analytical balance, and placed into a 1000 mL beaker, deionized water was added with a measuring cylinder to 900 ml, the pH was adjusted to 6.5 by 1M KOH, then the mixture was introduced into a 1 L measuring cylinder, and water was added to 1 L. It was stored at 4° C.]. Then, 1 μL of a compound or DMSO was added into the corresponding wells in the reaction plate. Preparation of solution A: 200 μL of 500 mM L-sodium ascorbate were added with 1050 μL of KPB, then the mixture was mixed uniformly for 3 seconds at the maximum speed in a turbine mixer. Solution B: 100 μL of 10 mM tryptophan were added with 100 μL of 100,000 unit/mL catalase, 5 μL of 10 mM methylene blue, and 1050 μL of KPB successively, then the mixture was mixed uniformly for 3 seconds at the maximum speed in a turbine mixer. Then, 1200 μL of solution A and 1200 μL of solution B were taken and mixed uniformly for 3 seconds at the maximum speed in a turbine mixer. The mixture was added to the reaction plate at 24 μL/well. The reaction plate was placed in a plate centrifuge and centrifuged for 15 seconds at the maximum speed, so that the reaction liquids converged to the bottom. The reaction mixture was mixed uniformly for 30 seconds on a shaker, and incubated for 1 hour at 37° C. in a constant temperature incubator. In the reaction plate, 30% (W/V) trichloroacetic acid was added at 10 μL/well, then the mixture was incubated for 15 minutes at 65° C. in an incubator. The reaction plate was centrifuged in a centrifuge for 5 minutes at 4700 RPM at room temperature. […] Then, 2% (W/V) 4-(dimethylamino)benzaldehyde/glacial acetic acid solution was added at 40 μL/well, and the mixture was mixed uniformly for 1 minute on a shaker at the maximum speed. After incubation for 2 minutes at room temperature, the absorbance at 480 nm was read on a Synergy HT (BIOTEK) reader.
# The inhibition activity of the compounds of the present invention on human IDO1 was tested by the assay described above.
# [1] = purified recombinant human IDO1, 1 hour at 37° C.
# Chain of IDO in HeLa cells (P14902 whole entry): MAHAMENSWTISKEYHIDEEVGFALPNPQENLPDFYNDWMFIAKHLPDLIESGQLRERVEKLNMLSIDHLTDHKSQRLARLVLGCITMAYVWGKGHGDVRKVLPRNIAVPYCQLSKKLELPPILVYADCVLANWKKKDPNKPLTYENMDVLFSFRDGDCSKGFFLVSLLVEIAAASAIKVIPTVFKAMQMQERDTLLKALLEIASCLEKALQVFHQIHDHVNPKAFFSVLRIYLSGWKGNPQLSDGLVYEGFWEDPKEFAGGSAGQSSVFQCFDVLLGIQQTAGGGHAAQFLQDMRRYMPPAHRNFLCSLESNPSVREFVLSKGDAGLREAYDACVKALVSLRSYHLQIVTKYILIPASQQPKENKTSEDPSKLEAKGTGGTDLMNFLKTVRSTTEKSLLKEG
# Chain of human IDO1 (P14902 whole entry): as above
Compound,IC50 (IDO in HeLa cells) [nM],IC50 (human IDO1; [1]) [nM],IC50 (human IDO1) [nM]
"Fc1cccc2c1C(C1CCN(c3ccccn3)CC1)n1cncc1-2 (stereo not shown) [Example 15, 6-fluoro-5-(1-(pyridin-2-yl)piperidin-4-yl)-5H-imidazo[5,1-a]isoindole trifluoroacetate]",199,,
"CC(=O)Nc1cccc(N2CCC(C3c4c(F)cccc4-c4cncn43)CC2)c1 (stereo not shown) [Example 12, N-(3-(4-(6-fluoro-5H-imidazo[5,1-a]isoindol-5-yl)piperidin-1-yl)phenyl)acetamide trifluoroacetate]",70.6,68.7,
"CS(=O)(=O)N1CCC(n2cc(-c3ccc(N4CCC(C5c6c(F)cccc6-c6cncn65)CC4)cc3)cn2)CC1 (stereo not shown) [Example 31, 6-fluoro-5-(1-(4-(1-(1-(methylsulfonyl)piperidin-4-yl)-1H-pyrazol-4-yl)phenyl)piperidin-4-yl)-5H-imidazo[5,1-a]isoindole trifluoroacetate]",,,14.2
"Fc1cccc2c1C(C1CCN(c3ccc(-c4cnn([C@@H]5CCOC5)c4)cc3)CC1)n1cncc1-2 (stereo partly drawn) [Example 32, 6-fluoro-5-(1-(4-(1-((R)-tetrahydrofuran-3-yl)-1H-pyrazol-4-yl)phenyl)piperidin-4-yl)-5H-imidazo[5,1-a]isoindole trifluoroacetate]",225,,33
"COCCn1cc(-c2ccc(N3CCC(C4c5c(F)cccc5-c5cncn54)CC3)cc2)cn1 (stereo not shown) [Example 42, 6-fluoro-5-(1-(4-(1-(2-methoxyethyl)-1H-pyrazol-4-yl)phenyl)piperidin-4-yl)-5H-imidazo[5,1-a]isoindole trifluoroacetate]",254,,36.3
"Cn1cc(-c2cccc(N3CCC(C4c5c(F)cccc5-c5cncn54)CC3)c2)cn1 (stereo not shown) [Example 8, 6-fluoro-5-(1-(3-(1-methyl-1H-pyrazol-4-yl)phenyl)piperidin-4-yl)-5H-imidazo[5,1-a]isoindole]",253,78.8,
"O=C(Nc1ccccc1)N1CCC(C2c3c(F)cccc3-c3cncn32)CC1 (stereo not shown) [Example 21, 4-(6-fluoro-5H-imidazo[5,1-a]isoindol-5-yl)-N-phenylpiperidine-1-carboxamide trifluoroacetate]",477,,
"CS(=O)(=O)N1CCCC(Oc2cnc(N3CCC(C4c5c(F)cccc5-c5cncn54)CC3)nc2)C1 (stereo not shown) [Example 37, 6-fluoro-5-(1-(5-((1-(methylsulfonyl)piperidin-3-yl)oxy)pyrimidin-2-yl)piperidin-4-yl)-5H-imidazo[5,1-a]isoindole trifluoroacetate]",114,17.8,
"Fc1cccc2c1C(C1CCN(c3ccc(-c4cnn(C5CCOC5)c4)cc3)CC1)n1cncc1-2 [Example 44, 6-fluoro-5-(1-(4-(1-((R)-tetrahydrofuran-3-yl)-1H-pyrazol-4-yl)phenyl)piperidin-4-yl)-5H-imidazo[5,1-a]isoindole trifluoroacetate]",175,,16.6
"N#Cc1ccc(NC(=O)N2CCC(C3c4c(F)cccc4-c4cncn43)CC2)cc1 (stereo not shown) [Example 22, N-(4-cyanophenyl)-4-(6-fluoro-5H-imidazo[5,1-a]isoindol-5-yl)piperidine-1-carboxamide trifluoroacetate]",130,56.9,
"CC(=O)NCCn1cc(-c2ccc(N3CCC(C4c5c(F)cccc5-c5cncn54)CC3)cc2)cn1 (stereo not shown) [Example 43, N-(2-(4-(4-(4-(6-fluoro-5H-imidazo[5,1-a]isoindol-5-yl)piperidin-1-yl)phenyl)-1H-pyrazol-1-yl)ethyl)acetamide trifluoroacetate]",171,,63.3

# Continued by falling IC50 (IDO in HeLa cells), values first:
IC50 (IDO in HeLa cells) [nM],IC50 (human IDO1; [1]) [nM],Compound,IC50 (human IDO1) [nM]
477,73.2,"O=C(NC1CCOCC1)c1ccc(N2CCC(C3c4c(F)cccc4-c4cncn43)CC2)cc1 (stereo not shown) [Example 11, 4-(4-(6-fluoro-5H-imidazo[5,1-a]isoindol-5-yl)piperidin-1-yl)-N-(tetrahydro-2H-pyran-4-yl)benzamide trifluoroacetate]",
260,,"Fc1cccc2c1C(C1CCN(c3ncccn3)CC1)n1cncc1-2 (stereo not shown) [Example 16, 6-fluoro-5-(1-(pyrimidin-2-yl)piperidin-4-yl)-5H-imidazo[5,1-a]isoindole trifluoroacetate]",
188,96.2,"COc1ccc(N2CCC(C3c4c(F)cccc4-c4cncn43)CC2)cc1 (stereo not shown) [Example 4, 6-fluoro-5-(1-(4-methoxyphenyl)piperidin-4-yl)-5H-imidazo[5,1-a]isoindole trifluoroacetate]",
151,28.1,"Fc1cccc2c1C(C1CCN(c3ccc(OC4CCOC4)cc3)CC1)n1cncc1-2 (stereo not shown) [Example 38, 6-fluoro-5-(1-(4-((tetrahydrofuran-3-yl)oxy)phenyl)piperidin-4-yl)-5H-imidazo[5,1-a]isoindole]",
88.3,,"Fc1cccc2c1C(C1CCN(c3ccc(Cl)cn3)CC1)n1cncc1-2 (stereo not shown) [Example 47, 5-(1-(5-chloropyridin-2-yl)piperidin-4-yl)-6-fluoro-5H-imidazo[5,1-a]isoindole]",
47.2,,"COc1cccc(NC(=O)C2CCC([C@@H]3c4c(F)cccc4-c4cncn43)CC2)c1 (stereo partly drawn) [Example 33, (1S,4S)-4-((R)-6-fluoro-5H-imidazo[5,1-a]isoindol-5-yl)-N-(3-methoxyphenyl)cyclohexanecarboxamide]",
